# Data reported in patent publication US20240391936A1, “TETRAHYDROTHIENO PYRIDINE DERIVATIVES AS DDRS INHIBITORS” (CHIESI FARMACEUTICI S.P.A., priority 2021, published 2024).
# Assays:
# DDR1 [1] = target: T1, DDR1 (Homo sapiens, UniProt Q08345); assay: DDR1 cell based assay (PathHunter U2OS DDR1 assay); set-up: host or cells: U2OS-DDR1 (PathHunter); conditions: U2OS-DDR1 cells, bovine Type II Collagen 20 μg/ml
# In short: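 U2OS-DDR1 PathHunter cells preincubated 30 min with compound, then stimulated overnight at 37 °C with 20 μg/ml bovine type II collagen. Luminescent complementation signal read after 1 h detection at room temperature; normalized to vehicle (0%) and collagen-only (100%) controls, IC50 from variable-slope sigmoidal fit.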
# DDR1 [2] = target: T1, DDR1; assay: DDR1 binding assay (LanthaScreen Europium Kinase Binding assay); set-up: purchased Carna Biosciences; conditions: binding assay, 5 nM DDR1, 20 nM Kinase Tracer 178; Ki from IC50 by Cheng-Prusoff; read-out: Ki DDR1
# In short: (§1)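 Compounds incubated 1 h at room temperature with 5 nM kinase, Kinase Tracer 178 (20 nM for DDR1, 10 nM for DDR2) and 2 nM Eu-anti-GST antibody in pH 7.5 HEPES/MgCl2/EGTA/BRIJ35 buffer. TR-FRET 665/615 nm ratio read after 340 nm excitation; IC50 from 4-parameter fit, converted to Ki by Cheng-Prusoff.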
# DDR2 = target: T2, DDR2 (Homo sapiens, UniProt Q16832); assay: DDR2 binding assay (LanthaScreen Europium Kinase Binding assay); set-up: purchased Life Technologies; conditions: binding assay, 5 nM DDR2, 10 nM Kinase Tracer 178; Ki from IC50 by Cheng-Prusoff; read-out: Ki DDR2
# T2 sequence (Q16832 22-855): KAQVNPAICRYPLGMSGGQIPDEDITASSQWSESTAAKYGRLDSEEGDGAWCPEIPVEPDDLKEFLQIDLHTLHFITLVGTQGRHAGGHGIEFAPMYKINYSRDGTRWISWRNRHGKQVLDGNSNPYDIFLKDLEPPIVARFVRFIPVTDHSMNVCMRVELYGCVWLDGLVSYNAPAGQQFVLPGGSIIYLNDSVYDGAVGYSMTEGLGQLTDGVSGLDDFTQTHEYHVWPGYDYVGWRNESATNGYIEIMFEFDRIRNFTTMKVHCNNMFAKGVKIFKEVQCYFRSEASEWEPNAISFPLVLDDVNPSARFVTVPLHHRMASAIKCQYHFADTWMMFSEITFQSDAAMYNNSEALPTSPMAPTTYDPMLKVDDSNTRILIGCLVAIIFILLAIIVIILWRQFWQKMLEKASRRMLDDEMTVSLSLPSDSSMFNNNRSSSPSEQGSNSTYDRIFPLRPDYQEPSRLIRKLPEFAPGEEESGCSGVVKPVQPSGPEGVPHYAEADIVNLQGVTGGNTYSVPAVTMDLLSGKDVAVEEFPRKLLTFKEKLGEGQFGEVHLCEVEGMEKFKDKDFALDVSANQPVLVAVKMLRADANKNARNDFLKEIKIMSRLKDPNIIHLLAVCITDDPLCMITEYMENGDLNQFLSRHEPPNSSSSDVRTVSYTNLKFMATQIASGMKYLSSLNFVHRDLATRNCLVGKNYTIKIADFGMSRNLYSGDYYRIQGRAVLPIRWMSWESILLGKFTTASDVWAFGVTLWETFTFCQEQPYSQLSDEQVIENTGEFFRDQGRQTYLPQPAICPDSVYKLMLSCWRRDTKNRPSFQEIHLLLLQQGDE
# In short: as §1
# T1 sequence (Q08345 19-913): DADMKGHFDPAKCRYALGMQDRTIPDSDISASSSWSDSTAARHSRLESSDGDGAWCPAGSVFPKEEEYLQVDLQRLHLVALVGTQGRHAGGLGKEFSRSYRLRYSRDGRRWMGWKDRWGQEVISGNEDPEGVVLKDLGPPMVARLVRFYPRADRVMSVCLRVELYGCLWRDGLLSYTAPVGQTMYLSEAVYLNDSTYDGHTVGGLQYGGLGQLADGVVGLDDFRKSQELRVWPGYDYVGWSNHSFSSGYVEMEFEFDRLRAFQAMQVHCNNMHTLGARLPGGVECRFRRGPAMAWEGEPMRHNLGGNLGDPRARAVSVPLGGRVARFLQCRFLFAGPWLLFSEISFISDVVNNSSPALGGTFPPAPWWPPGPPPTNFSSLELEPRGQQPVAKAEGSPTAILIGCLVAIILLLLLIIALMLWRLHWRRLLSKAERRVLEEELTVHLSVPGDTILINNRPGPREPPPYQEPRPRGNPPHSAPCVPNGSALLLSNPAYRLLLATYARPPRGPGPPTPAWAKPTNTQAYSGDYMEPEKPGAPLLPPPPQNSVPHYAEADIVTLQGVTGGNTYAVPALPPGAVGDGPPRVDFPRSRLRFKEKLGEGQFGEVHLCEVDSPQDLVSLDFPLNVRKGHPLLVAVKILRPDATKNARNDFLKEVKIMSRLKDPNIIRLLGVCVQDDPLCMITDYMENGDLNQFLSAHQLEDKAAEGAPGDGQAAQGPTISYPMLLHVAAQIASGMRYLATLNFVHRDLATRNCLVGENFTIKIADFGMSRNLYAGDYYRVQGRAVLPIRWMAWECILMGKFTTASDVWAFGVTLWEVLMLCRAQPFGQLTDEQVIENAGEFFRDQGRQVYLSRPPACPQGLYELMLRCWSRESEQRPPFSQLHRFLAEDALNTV
SMILES,IC50 (DDR1 [1]),Ki (DDR1 [2]),Ki (DDR2)
"CN1CCC(Oc2cc(NC(=O)c3csc4c3CCN(C(=O)c3cnc5ccccn35)C4)cc(C(F)(F)F)c2)C1 (stereo not drawn) [Example 63, 6-(imidazo[1,2-a]pyridine-3-carbonyl)-N-[3-(1-methylpyrrolidin-3-yl)oxy-5-(trifluoromethyl)phenyl]-5,7-dihydro-4H-thieno[2,3-c]pyridine-3-carboxamide]",0.05 to 0.08 µM,< 0.025 µM,< 0.025 µM
"CC(=O)N1CCN(Cc2cc(NC(=O)c3csc4c3CCN(C(=O)c3cnc5ccccn35)C4)cc(C(F)(F)F)c2)CC1 [Example 58, N-(3-((4-acetylpiperazin-1-yl)methyl)-5-(trifluoromethyl)phenyl)-6-(imidazo[1,2-a]pyridine-3-carbonyl)-4,5,6,7-tetrahydrothieno[2,3-c]pyridine-3-carboxamide]",0.025 to 0.05 µM,< 0.025 µM,< 0.025 µM
"COCCN(C)Cc1cc(NC(=O)c2csc3c2CCN(C(=O)c2cnc4ccccn24)C3)cc(C(F)(F)F)c1 [Example 61, 6-(imidazo[1,2-a]pyridine-3-carbonyl)-N-(3-(((2-methoxyethyl)(methyl)amino)methyl)-5-(trifluoromethyl)phenyl)-4,5,6,7-tetrahydrothieno[2,3-c]pyridine-3-carboxamide]",0.025 to 0.05 µM,< 0.025 µM,< 0.025 µM
"O=C(Nc1cc(C(F)(F)F)ncn1)c1csc2c1CCN(C(=O)c1cnc3ccccn13)C2 [Example 21, 6-(imidazo[1,2-a]pyridine-3-carbonyl)-N-(6-(trifluoromethyl)pyrimidin-4-yl)-4,5,6,7-tetrahydrothieno[2,3-c]pyridine-3-carboxamide]",0.025 to 0.05 µM,< 0.025 µM,< 0.025 µM
"O=C(Nc1ccc(CO)c(C(F)(F)F)c1)c1csc2c1CCN(C(=O)c1cnc3ccccn13)C2 [Example 132, N-(4-(hydroxymethyl)-3-(trifluoromethyl)phenyl)-6-(imidazo[1,2-a]pyridine-3-carbonyl)-4,5,6,7-tetrahydrothieno[2,3-c]pyridine-3-carboxamide]",< 0.025 µM,< 0.025 µM,< 0.025 µM
"O=C(Nc1ccc(OCC2COC2)c(C(F)(F)F)c1)c1csc2c1CCN(C(=O)c1cnc3ccccn13)C2 [Example 14, 6-(imidazo[1,2-a]pyridine-3-carbonyl)-N-(4-(oxetan-3-ylmethoxy)-3-(trifluoromethyl)phenyl)-4,5,6,7-tetrahydrothieno[2,3-c]pyridine-3-carboxamide]",< 0.025 µM,< 0.025 µM,< 0.025 µM
"Cc1cccc2ncc(C(=O)N3CCc4c(C(=O)Nc5cc(CN6CC[C@@H](N(C)C)C6)cc(C(F)(F)F)c5)csc4C3)n12 [Example 162, (R)—N-(3-((3-(dimethylamino)pyrrolidin-1-yl)methyl)-5-(trifluoromethyl)phenyl)-6-(5-methylimidazo[1,2-a]pyridine-3-carbonyl)-4,5,6,7-tetrahydrothieno[2,3-c]pyridine-3-carboxamide]",0.025 to 0.05 µM,< 0.025 µM,0.025 to 0.05 µM
"Cn1nc(C2(C(F)(F)F)CC2)cc1NC(=O)c1csc2c1CCN(C(=O)c1cnc3ccccn13)C2 [Example 114, 6-(imidazo[1,2-a]pyridine-3-carbonyl)-N-(1-methyl-3-(1-(trifluoromethyl)cyclopropyl)-1H-pyrazol-5-yl)-4,5,6,7-tetrahydrothieno[2,3-c]pyridine-3-carboxamide]",0.05 to 0.08 µM,< 0.025 µM,< 0.025 µM
"O=C(Nc1cccc(C(F)(F)F)c1)c1csc2c1CCN(C(=O)c1cnc3[nH]ncc3c1)C2 [Example 91, 6-(1H-pyrazolo[3,4-b]pyridine-5-carbonyl)-N-(3-(trifluoromethyl)phenyl)-4,5,6,7-tetrahydrothieno[2,3-c]pyridine-3-carboxamide]",< 0.025 µM,< 0.025 µM,< 0.025 µM
"CN1CCN(Cc2ccc(NC(=O)c3csc4c3CCN(C(=O)c3cnc5ccccn35)C4)cc2C(F)(F)F)CC1 [Example 18, 6-(imidazo[1,2-a]pyridine-3-carbonyl)-N-(4-((4-methylpiperazin-1-yl)methyl)-3-(trifluoromethyl)phenyl)-4,5,6,7-tetrahydrothieno[2,3-c]pyridine-3-carboxamide]",0.05 to 0.08 µM,< 0.025 µM,< 0.025 µM
"O=C(Nc1cccc(C(F)(F)F)c1)c1csc2c1CCN(C(=O)c1cnc3n1CCOC3)C2 [Example 96, 6-(5,6-dihydro-8H-imidazo[2,1-c][1,4]oxazine-3-carbonyl)-N-(3-(trifluoromethyl)phenyl)-4,5,6,7-tetrahydrothieno[2,3-c]pyridine-3-carboxamide]",< 0.025 µM,< 0.025 µM,< 0.025 µM
"Cn1nc(C(C)(C)C)cc1NC(=O)c1csc2c1CCN(C(=O)c1cnc3ccc(C(F)(F)F)cn13)C2 [Example 82, N-(3-(tert-butyl)-1-methyl-1H-pyrazol-5-yl)-6-(6-(trifluoromethyl)imidazo[1,2-a]pyridine-3-carbonyl)-4,5,6,7-tetrahydrothieno[2,3-c]pyridine-3-carboxamide]",0.025 to 0.05 µM,< 0.025 µM,< 0.025 µM
"CC(C)(C)c1cc(NC(=O)c2csc3c2CCN(C(=O)c2cnc4ccccn24)C3)n(CC(F)(F)F)n1 [Example 40, N-(3-(tert-butyl)-1-(2,2,2-trifluoroethyl)-1H-pyrazol-5-yl)-6-(imidazo[1,2-a]pyridine-3-carbonyl)-4,5,6,7-tetrahydrothieno[2,3-c]pyridine-3-carboxamide]",0.025 to 0.05 µM,< 0.025 µM,< 0.025 µM

# Now from value to compound:
IC50 (DDR1 [1]),Ki (DDR1 [2]),Ki (DDR2),SMILES
0.05 to 0.08 µM,< 0.025 µM,< 0.025 µM,"O=C(Nc1cncc(C(F)(F)F)c1)c1csc2c1CCN(C(=O)c1cnc3n1CCCC3)C2 [Example 111, 6-(5,6,7,8-tetrahydroimidazo[1,2-a]pyridine-3-carbonyl)-N-(5-(trifluoromethyl)pyridin-3-yl)-4,5,6,7-tetrahydrothieno[2,3-c]pyridine-3-carboxamide]"
0.025 to 0.05 µM,< 0.025 µM,< 0.025 µM,"O=C(Nc1cncc(OC(F)F)c1)c1csc2c1CCN(C(=O)c1cnn3ccncc13)C2 [Example 125, N-(5-(difluoromethoxy)pyridin-3-yl)-6-(pyrazolo[1,5-a]pyrazine-3-carbonyl)-4,5,6,7-tetrahydrothieno[2,3-c]pyridine-3-carboxamide]"
0.05 to 0.08 µM,< 0.025 µM,< 0.025 µM,"CCC(C)(C)c1cc(NC(=O)c2csc3c2CCN(C(=O)c2cnn4ccncc24)C3)on1 [Example 179, N-(3-(tert-pentyl)isoxazol-5-yl)-6-(pyrazolo[1,5-a]pyrazine-3-carbonyl)-4,5,6,7-tetrahydrothieno[2,3-c]pyridine-3-carboxamide]"
0.05 to 0.08 µM,< 0.025 µM,< 0.025 µM,"COc1ncc(NC(=O)c2csc3c2CCN(C(=O)c2cnn4ccncc24)C3)cc1C(F)(F)F [Example 121, N-(6-methoxy-5-(trifluoromethyl)pyridin-3-yl)-6-(pyrazolo[1,5-a]pyrazine-3-carbonyl)-4,5,6,7-tetrahydrothieno[2,3-c]pyridine-3-carboxamide]"
< 0.025 µM,< 0.025 µM,< 0.025 µM,"COc1ccn2ncc(C(=O)N3CCc4c(C(=O)Nc5cncc(C(F)(F)F)c5)csc4C3)c2c1 [Example 140, 6-(5-methoxypyrazolo[1,5-a]pyridine-3-carbonyl)-N-(5-(trifluoromethyl)pyridin-3-yl)-4,5,6,7-tetrahydrothieno[2,3-c]pyridine-3-carboxamide]"
< 0.025 µM,< 0.025 µM,< 0.025 µM,"CC(C)(C)c1cncc(NC(=O)c2csc3c2CCN(C(=O)c2cnc4ccccn24)C3)c1 [Example 117, N-(5-(tert-butyl)pyridin-3-yl)-6-(imidazo[1,2-a]pyridine-3-carbonyl)-4,5,6,7-tetrahydrothieno[2,3-c]pyridine-3-carboxamide]"
